IC50 data for 13 compounds are collected here from BindingDB's records for doi:10.1021/acs.jmedchem.2c01601 (Sapienza University of Rome, 2023).

The target of assay [1] is METTL3/METTL14 complex (Homo sapiens). The assay is described as follows: Competive inhibition of full length human METTL3/METTL14 expressed in Sf9 cells using single strand RNA 5'-AAGAACCGGACUAAGCU-3' and SAM as substrate incubated for 40 mins by HTRF assay. A general note: Time-resolved FRET reads energy transfer from a long-lived donor to a nearby acceptor.
In assay [2] the target is N6-adenosine-methyltransferase catalytic/non-catalytic subunit (Homo sapiens, UniProt Q9HCE5+Q86U44). Briefly: Inhibition of full-length His-tagged METTL3/full length FLAG-tagged METTL14 (unknown origin) expressed in baculovirus expression system using synthetic RNA 5'P-uacacucgaucuggacuaaagcugcuc-3' and SAM as substrate preincubated for 10 mins followed by substrate addition and measured after 60 mins by RF/MS analysis.

Assay [3] deals with METTL3/METTL14 (Homo sapiens). Briefly: Inhibition of full-length His-tagged METTL3/full length FLAG-tagged METTL14 (unknown origin) expressed in baculovirus expression system using synthetic RNA 5'P-uacacucgaucuggacuaaagcugcuc-3' and SAM as substrate preincubated for 10 mins followed by substrate addition and measured after 60 mins by RF/MS analysis.
The target in assay [4] is METTL3/METTL14 complex. Briefly: Inhibition of METTL3/METTL14 (unknown origin).

Each structure is given as a SMILES string.

Chain of N6-adenosine-methyltransferase catalytic/non-catalytic subunit (Q9HCE5 whole entry): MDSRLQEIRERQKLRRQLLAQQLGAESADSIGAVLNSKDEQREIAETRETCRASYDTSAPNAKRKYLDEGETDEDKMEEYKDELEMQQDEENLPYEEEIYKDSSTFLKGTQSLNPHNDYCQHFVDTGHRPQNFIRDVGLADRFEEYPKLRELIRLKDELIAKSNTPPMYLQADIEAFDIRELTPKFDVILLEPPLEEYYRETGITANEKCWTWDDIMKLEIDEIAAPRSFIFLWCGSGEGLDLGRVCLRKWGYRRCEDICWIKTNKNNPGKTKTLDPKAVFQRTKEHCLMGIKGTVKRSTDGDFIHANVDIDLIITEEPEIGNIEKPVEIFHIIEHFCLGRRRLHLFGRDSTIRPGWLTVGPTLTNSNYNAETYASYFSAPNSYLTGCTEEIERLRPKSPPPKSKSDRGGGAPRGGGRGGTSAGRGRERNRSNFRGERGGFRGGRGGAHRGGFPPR
Chain of N6-adenosine-methyltransferase catalytic/non-catalytic subunit (Q86U44 whole entry): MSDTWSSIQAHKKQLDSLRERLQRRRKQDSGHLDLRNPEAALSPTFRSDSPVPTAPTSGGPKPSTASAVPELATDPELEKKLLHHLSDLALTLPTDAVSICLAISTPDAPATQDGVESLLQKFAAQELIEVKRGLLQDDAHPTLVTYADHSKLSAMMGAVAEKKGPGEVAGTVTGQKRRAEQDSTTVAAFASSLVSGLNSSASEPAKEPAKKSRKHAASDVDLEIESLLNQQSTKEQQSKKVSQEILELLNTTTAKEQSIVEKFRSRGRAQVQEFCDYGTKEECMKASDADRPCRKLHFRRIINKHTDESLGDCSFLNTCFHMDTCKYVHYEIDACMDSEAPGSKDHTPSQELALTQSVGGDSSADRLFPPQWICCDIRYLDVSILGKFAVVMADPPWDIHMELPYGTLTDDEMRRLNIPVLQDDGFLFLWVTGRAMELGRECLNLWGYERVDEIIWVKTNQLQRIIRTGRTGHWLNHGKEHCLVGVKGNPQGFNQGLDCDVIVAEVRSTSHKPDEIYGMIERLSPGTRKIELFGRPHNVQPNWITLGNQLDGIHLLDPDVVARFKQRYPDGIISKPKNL

By IC50 is commonly meant the midpoint of a concentration-inhibition curve. Low values mean greater potency in that assay, high ones weaker potency in that assay. `CN1CCC(NC(=O)[C@H]2O[C@@H](n3cnc4c(N)ncnc43)[C@H](O)[C@@H]2O)CC1`: the IC50 in assay [1] is 65000 nM.
Same read-out and setting: the result for `CNC1CCC(O)(Cn2cnc3c(N)ncnc32)C(O)C1` (stereo not drawn) reads 98000 nM.
For `CC1(C)CCN(Cc2ccc3nc(Cn4cc(-c5cc(Br)cc6[nH]ncc56)nn4)cn3c2)CC1`, the IC50 in assay [2] was determined as 7.9 nM.
On the same count and under the same terms, next, `COc1cc(-c2cn(Cc3cn4cc(CNCC5(OC)CCC5)ccc4n3)nn2)c2cn[nH]c2c1`: 6.1 nM.
In turn, `COc1ccc2[nH]ncc2c1-c1cn(Cc2cn3cc(CNCC4CCC4)ccc3n2)nn1` returned an IC50 in assay [2] of 6.1 nM.
The compound `O=C(NCc1cn2cc(CNCC34CC(F)(C3)C4)ccc2n1)c1cc(=O)n2ccccc2n1` registered an IC50 in assay [3] of 6.1 nM. That is a single-digit nanomolar value.
Compound `CC1=NN(c2ccc(C)c(C)c2)C(=O)/C1=N\Nc1cccc(-c2cccc(C(=O)O)c2)c1` registered an IC50 in assay [4] of 15300 nM.
As for `Nc1ncnc2c1c(Br)cn2[C@@H]1C[C@H](c2ccc3cc(CN4CCC5(CCC5)C4)[nH]c3c2)[C@@H](O)[C@H]1O` [(1R,2S,3R,5R)-3-{4-amino-5-bromo-7H-pyrrolo[2,3-d]pyrimidin-7-yl}-5-[2-({6-azaspiro[3.4]octan-], the IC50 in assay [2] came to 6.1 nM.
On to `Nc1ncnc2c1c(Cl)cn2[C@@H]1C[C@H](c2ccc3cc(CNCC45CC(F)(C4)C5)[nH]c3c2)[C@@H](O)[C@H]1O` [(1R,2S,3R,5R)-3-{4-amino-5-chloro-7H-pyrrolo[2,3-d]pyrimidin-7-yl}-5-(2-{[({3-fluorobicyclo[1.1.1]pentan-1-], for which the IC50 in assay [2] amounted to 6.1 nM. This lies in the single-digit nanomolar range.
On the same count and under the same terms, next, `Nc1ncnc2c1ccn2[C@@H]1C[C@H](c2ccc3cc(CN4CCC5(CCC5)C4)[nH]c3c2)[C@@H](O)[C@H]1O` [(1R,2S,3R,5R)-3-{4-amino-7H-pyrrolo[2,3-d]pyrimidin-7-yl}-5-[2-({6-azaspiro[3.4]octan-]: 6.2 nM.
`COc1cc(-c2cn(Cc3cn4cc(CNCC56CC(F)(C5)C6)ccc4n3)nn2)c2cncn2c1` [({3-fluorobicyclo[1.1.1]pentan-1-yl}methyl)({2-[(4-{6-methoxyimidazo[1,5-a]pyridin-8-yl}-1H-1,2,3-triazol-1-yl)methyl]imidazo [1,2-a]pyridin-6-yl}methyl)amine] had an IC50 in assay [3] of 6.1 nM.
The same measure, in the same setting: next, `COc1cc(-c2cn(Cc3cn4cc(CNCC56CC(C5)C6)ccc4n3)nn2)c2cncn2c1` [({bicyclo[1.1.1]pentan-1-yl}methyl)({2-[(4-{6-methoxyimidazo[1,5-a]pyridin-8-yl}-1H-1,2,3-triazol-1-yl)methyl]imidazo [1,2-a]pyridin-6-yl}methyl)amine]: 6.1 nM; `COc1cc(-c2cn(Cc3cn4cc(CNCC5CCC5)ccc4n3)nn2)c2cncn2c1` [US20230391770, Example 22]: 6.1 nM.
